Results from paper PMC10326142 (Cancer Chemotherapy and Pharmacology, 2023).
“And” between values parts separate entries of the source, which are not always exact repeats. Equal entries are not always repeated. Where two headings read alike, the source gives them in different places.

Columns and labels:
[1] = cited from earlier work
[2] = Plasma pharmacokinetics of neratinib and trametinib co-administered, cycle 1 day 15 (LC/MS, noncompartmental); type: in vivo, human; conditions: for Ctau or C24 (trough concentration) / Half-life / Tmax: plasma; for Ctau or C24 (trough concentration): mean (range) in Table 4; for Oral CLss (oral clearance at steady state): mean (range) in Table 4, mean ± spread in text
patients = conditions: cited from earlier work
P-glycoprotein (P-gp) = tested on: P-glycoprotein (P-gp); parameters: method as in PMID 34664792; conditions: digoxin = P-gp substrate; cited from earlier work
[3] = tested on: patients with solid tumors; parameters: method as in Wong et al 27; conditions: monotherapy 180mg, N=6; cell as count (percent), ref Wong et al 27; cited from earlier work
[4] = single agent trametinib 2 mg, 13 patients, mean (range), ref Infante et al. 32
[5] = single agent trametinib 2.5 mg, 16 patients, mean (range), ref Infante et al. 32
[6] = single agent trametinib 3 mg, 16 patients, mean (range), ref Infante et al. 32
[7] = co-administered at dose level minus 1 (160 mg neratinib daily with 1 mg trametinib 5 days on and 2 days off), cycle 1 day 15, 8 patients
[8] = monotherapy 1mg, N=2, ref Infante et al 32
[9] = monotherapy 2mg, N=70, cell as count (percent), ref Infante et al 32

For CC(=O)Nc1cccc(-n2c(=O)n(C3CC3)c(=O)c3c(Nc4ccc(I)cc4F)n(C)c(=O)c(C)c32)c1 [trametinib], which oral clearance ([1]; published single agent data) is on record?
Its oral clearance is 3.81 L/h.

What about the Cmax [1, 4] of the same compound?
The Cmax was 22.2 (14–32·9) ng/mL.

What about the “Ctau or C24” value [1, 4] of the same compound?
Its value is 12.1 (8.26–16.9) ng/mL.

And the Half-life [1, 4]?
The Half-life was 57.6 (4·01–210) h.

And the AUC0-24 [1, 5]?
Its AUC0-24 is 410 (215–865) ng*h/mL.

And the “Ctau or C24” value [1, 5]?
The value was 15.1 (6.86–40.5) ng/mL.

And the Half-life [1, 5]?
Its Half-life is 90.2 (58.4–183) h.

And the AUC0-24 [1, 6]?
The AUC0-24 was 540 (261–968) ng*h/mL.

What about the Cmax [1, 6] of the same compound?
The Cmax was 33.4 (15.6–60.9) ng/mL.

And the “Ctau or C24” value [1, 6]?
Its value is 17.9 (7.77–35.5) ng/mL.

And the Half-life [1, 6]?
Its Half-life is 86.1 (15.1–291) h.

What about the Tmax [1, 6] of the same compound?
Its Tmax is 2.05 (0.5–10.0) h.

And the “Ctau or C24 (trough concentration)” value [2, 7]?
Its value is 27.8 (8.5–42.2) ng/mL.

And the “Oral CLss (oral clearance at steady state)” value (shortened to “Oral CLss”) [2, 7]?
The value was 1.55 ± 0.63 L/h and 1.55 L/h.

What about the “Oral CLss” value ([2]; co-administered at dose level minus 1 (160 mg neratinib daily with 1 mg trametinib 5 days on and 2 days off), cycle 1 day 15, 8 patients, listed as Trametinib) of the same compound?
Its value is 1.55 (0.95–2.4) L/h.

And the Half-life ([2]; human, oral)?
Its Half-life is 52 h.

What about the Tmax ([2]; human, oral, read-out: Tmax) of the same compound?
Its Tmax is 5.6 h.

And the “trametinib clearance when co-administered with neratinib (in words)” value ([2]; vs published single agent data)?
Its value is “significantly reduced”.

What about the “Grade > 3 TRAE: Fatigue” value (patients; [8]) of the same compound?
Its value is 0.

What about the “Grade > 3 TRAE: Nausea” value (patients; [8]) of the same compound?
Its value is 0.

What about the “TRAE of all grades: Mucositis” value (patients; [9]) of the same compound?
Its value is 3 (4).

And the “TRAE of all grades: Nausea” value (patients; [9])?
Its value is 18 (26).

And the “TRAE of all grades: Vomiting” value (patients; [9])?
The value was 9 (13).

Which “changes in neratinib PKs compared to existing single agent PK data (in words)” value ([2]; PK cohort, co-administered with trametinib) does the source give for CCOc1cc2ncc(C#N)c(Nc3ccc(OCc4ccccn4)c(Cl)c3)c2cc1NC(=O)/C=C/CN(C)C [neratinib] here?
Its value is “no observed changes”.

What about the Tmax ([2]; co-administered at dose level minus 1 (160 mg neratinib daily with 1 mg trametinib 5 days on and 2 days off), cycle 1 day 15, 8 patients, mean (range)) of the same compound?
Its Tmax is 5.8 (3–8) h.

And the “Ctau or C24 (trough concentration)” value [2, 7]?
Its value is 43.99 (3.4–93) ng/mL.

And the “Oral CLss” value [2, 7]?
Its value is 76.7 ± 16.9 L/h.

And the “Oral CLss” value ([2]; co-administered at dose level minus 1 (160 mg neratinib daily with 1 mg trametinib 5 days on and 2 days off), cycle 1 day 15, 8 patients, listed as Neratinib)?
The value was 76.7 (56.5–93.5) L/h.

What about the “AR (accumulation ratio)” value ([2]; co-administered at dose level minus 1 (160 mg neratinib daily with 1 mg trametinib 5 days on and 2 days off), day 15, 8 patients, mean (range)) of the same compound?
Its value is 1.67 (1.19–2.16).

And the Half-life ([2]; human, oral)?
Its Half-life is 18 h.

What about the Tmax ([2]; human, oral, read-out: Tmax) of the same compound?
Its Tmax is roughly 6 h.

What about the “increase of digoxin AUC” value (P-glycoprotein (P-gp)) of the same compound?
Its value is 32%.

What about the “increase of digoxin plasma concentrations (Cmax)” value (P-glycoprotein (P-gp)) of the same compound?
Its value is 54%.

What about the “Grade > 3 TRAE: Diarrhea” value [3] of the same compound?
The value was 1 (17).

And the “Grade > 3 TRAE: Fatigue” value [3]?
Its value is 1 (17).

And the “Grade > 3 TRAE: Nausea” value [3]?
Its value is 0.

And the “Grade > 3 TRAE: Rash” value [3]?
The value was 0.

What about the “Grade > 3 TRAE: Vomiting” value [3] of the same compound?
The value was 0.

And the “TRAE of all grades: Anorexia” value [3]?
Its value is 1 (17).

What about the “TRAE of all grades: Diarrhea” value [3] of the same compound?
The value was 6 (100).

And the “TRAE of all grades: Fatigue” value [3]?
The value was 4 (67).

What about the “TRAE of all grades: Nausea” value [3] of the same compound?
Its value is 3 (50).

And the “TRAE of all grades: Rash” value [3]?
The value was 1 (17).

What about the “TRAE of all grades: Vomiting” value [3] of the same compound?
The value was 2 (33).
